Assay results from patent US10300107B2, “Compositions and methods for CaMKII inhibitors and uses thereof” (THE REGENTS OF THE UNIVERSITY OF COLORADO, priority 2007, dated 2019).
Values joined by “and” are separate entries in the source; they are usually repeats but may differ in a detail not shown here. Equal values may be shown once. “Also recorded” adds a separate entry of the source. Read-outs that look alike come from different tables or passages of the source. Blank lines part the entries; values can stand above or below the molecule they belong to. Where no end group is shown, it is not given here.

Columns and labels:
[1] = test system: hippocampal and cortical cultures; assay: Glutamate induced neuronal cell death measured by LDH release; assay type: cell-based, rat
Experimental: In another example, neuronal cell death is measured by LDH release. In this exemplary method, glutamate was used to induce neuronal cell death, A portion of CaMKIIN was fused to a cell penetrating molecule to generate tatCN21a construct.

[2] = test system: Langerhans' islets; assay: Glucose-induced insulin secretion from isolated Langerhans' islets; assay type: cell-based, rat; details: 11 mM glucose; EGTA 0.5 mM, KN93 10 μM, antCN27 5 μM, tatCN21 5 μM
Experimental: Insulin secretion. Langerhans' islets acutely isolated from adult male Wistar rats (Harlan) were obtained. […] Inhibitors or EGTA were added 30 min before stimulation. Insulin secreted into the medium during 90 min stimulation was measured using an ELISA kit (CrystalChem).

[3] = biological target: T1, CaMKII binding to GST-NR2B-c (Homo sapiens, UniProt Q9UQM7); assay: Ca2+/CaM-induced CaMKII binding to immobilized GST-NR2B-c; details: Western blot of eluted CaMKII
T1 construct: made in house; host or cells: CaMKII: baculovirus/Sf9; GST-NR2B-c and CaM: bacteria
Experimental: CaMKII binding to NR2B-c was assessed as previously described. Briefly, GST-NR2B-c was immobilized on anti-GST coated microtiter plates, then overlaid with 100 nM CaMKII in presence of Ca^2+/CaM and 1 or 5 μM of various CN peptides. After extensive wash, protein was eluted from the plates by boiling in SDS-loading buffer. Eluted CaMKII was detected by Western-blot as described above.

[4] = biological target: T2, CaMKII (Homo sapiens, UniProt Q9UQM7); assay: CaMKII self-association in vitro; assay type: biochemical
T2 construct: made in house; host or cells: baculovirus/Sf9 cells
Experimental: (§1) Stimulated CaMKII activity was assessed using purified CaMKII, [γ^32P]ATP, and the CaMKII substrate, syntide2. Reaction was initiated by addition of calcium and calmodulin. To measure autonomous activity, CaMKII was pre-autophosphorylated by incubation with calcium and calmodulin, which was then chelated by addition of EDTA prior to adding the kinase to syntide2 and [γ^32P]ATP. […] To measure self-association, purified CaMKII was incubated for five minutes with 1mM ADP, calcium and calmodulin, and the appropriate inhibitor. The reaction mixture was then centrifuged to pellet the self-associated kinase. The supernatant (S) was removed and saved and the pellet (P) was resuspended. Both were then resolved by SDS-PAGE and western-blotted for CaMKII. Self-associated kinase is found in the pellet.

[5] = biological target: T2, CaMKII; assay: Autonomous CaMKII activity (pre-autophosphorylated CaMKII); assay type: biochemical
Experimental: as §1

[6] = biological target: T2, CaMKII; assay: CaMKII auto- and protein-phosphorylation (MAP2, T286, T305; immuno-blot); assay type: biochemical; details: KN93 10 μM
Experimental: CaMKII auto- and protein-phosphorylation. 10 nM MAP2 (˜140 nM phosphorylation sites) was used instead of substrate peptide, and reaction times were 5 min, unless indicated otherwise. CaMKII concentration was 100 nM subunits (=8.3 nM holoenzymes). Auto- and MAP2-phosphorylation were assessed by Immuno-blot analysis previously derived (Bayer et al., 2002, incorporated herein by reference) with phospho-T286- or -T305-specific antibodies (1:500; PhosphoSolutions) and an anti-phospho-Thr antibody (1:500; Zymed), respectively. Total CaMKIIα was detected with CBα2 antibody (1:2000; GIBCO). Protein were separated on 10% poly-acrylamid SDS Gels, and electro-blotted onto “Protran” 0.2 μm pore nitrocelluse filters (e.g. Schleicher & Schull) or onto PVDF filters (e.g. Perkin Elmer). Alternatively, for quantitative analyses, a vacuum-driven slot-blot manifold (e.g. Schleicher & Schull) was used for transfer onto PVDF membranes. PVDF membranes were air-dried for 15 min, then wetted in Methanol. Blots were blocked in 5% milk in TBS-T (Tris-buffered saline pH 7.6 with 0.1% Tween-20). Antibodies were incubated for 45-60 min at room temperature in 2.5% milk in TBS-T; for the anti-phospho-T305 antibody, 2.5% BSA was used instead. After secondary antibody incubation (anti-mouse or anti-rabbit horseradish peroxidase conjugate; Amersham; 1:4000), detection was done using the “Western Lightning” system (Perkin Elmer) and exposure to “Hyperfilm” (Amersham). For quantitative analysis, chemoluminescence was captured using a ChemiImager 4400 imaging system (Alpha Innotek) instead of film. Only non-saturated images were analyzed, using AlphaEase software.

[7] = test system: CaMKII; assay type: biochemical; details: for potency of CaMKII inhibition of CN19 combination mutants: comparator as stated in the value; for effect of further mutation on potency of CaMKII inhibition: CN19a2v background; for IC50: read-out: IC50 of CaMKII inhibition
Experimental: CaMKII activity assays. Standard CaMKII assays were done for 1 min at 30° C. previously described, with 20 nM CaMKII (subunit, not holoenzyme concentration), 50 mM PIPES pH 7.2, 0.1 mg/ml BSA, 10 mM MgCl2, 100 μM [γ-^32P] ATP (˜1 Ci/mmol), 1 mM CaCl2, 1-2 μM CaM, and 30-60 μM AC2 peptide (or syntide2). The reactions were spotted onto Whatman P81 phosphocellulose paper rectangles (˜2×2.5 cm). To remove free radioactivity, the paper rectangles were rinsed and washed for 30 min under agitation in 0.5% phosphoric acid or water. […] Radioactivity of the bound peptides was quantified in a Beckman 6000TA scintillation counter by the Cherenkov method. Any changes of the standard protocol were done as indicated. For assays of the GFP-CaMKIIα mutants, kinase amounts were normalized by GFP fluorescence in the extract, and total protein was adjusted with Cos-7 extracts.

[8] = biological target: CaMKI (Homo sapiens, UniProt Q14012); assay: CaMKI activity / inhibition; assay type: biochemical
Text: For curve fit, the Hill coefficient was set as 1.

[9] = test system: protein kinase C (PKC); assay: Phosphorylation of CN19 peptides by PKC in vitro; assay type: biochemical
Text: CN19 phosphorylation at S12 by protein kinase C reduces potency of CaMKII inhibition. In another exemplary method, protein kinase C (PKC) activity was examined with respect to CN19 as a substrate or the S12 mutant. […] The CN19 region most sensitive to Ala substitutions (surrounding R11) contains a potential PKC phosphorylation site (S12).
FIGS. 22A and 22B represent CN19 phosphorylation at S12 by PKC reduces potency of CaMKII inhibition. A, PKC phosphorylated CN19 but not its S12A mutant in vitro, as measured by phosphate incorporation. The phosphorylation rate of CN19 was >50% compared to a MARCKS peptide substrate of PKC. […] S12 was sensitive also to various other mutations (see Table 1 and data not shown). Error bars indicate s.e.m. in all panels.

[10] = biological target: calmodulin (CaM) (Homo sapiens, UniProt P0DP23); assay: Binding to calmodulin (slot blot, blot overlay, TA-CaM competition with CBD); details: for binding of biotinylated CaM to immobilized peptide: slot blot
Experimental: TA-labeled CaM represents reduced fluorescence after binding to CaMKII or its CaM binding domain (CBD; −0.05 nM kD for CaM^5; see also FIG. 9G).
Measured was AC2 phosphorylation as described^4. Error bars show s.e.m.

Sequence of CaMKI (Q14012 whole entry, species assumed): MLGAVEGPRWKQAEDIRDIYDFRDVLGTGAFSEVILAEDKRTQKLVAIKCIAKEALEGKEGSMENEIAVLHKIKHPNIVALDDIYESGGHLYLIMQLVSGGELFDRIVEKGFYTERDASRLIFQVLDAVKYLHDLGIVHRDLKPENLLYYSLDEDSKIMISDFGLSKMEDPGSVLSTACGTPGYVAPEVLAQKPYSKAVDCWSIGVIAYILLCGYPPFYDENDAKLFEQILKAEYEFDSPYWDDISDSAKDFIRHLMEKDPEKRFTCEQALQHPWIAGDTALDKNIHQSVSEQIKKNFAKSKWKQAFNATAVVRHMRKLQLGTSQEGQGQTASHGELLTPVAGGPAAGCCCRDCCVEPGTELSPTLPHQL

Molecule: N[C@@H](CCCP(=O)(O)O)C(=O)O [APV]
glutamate induced cell death ([1]; 7DIV cortical, added 1-6 hours post insult): did not
glutamate induced neuronal cell death ([1]; present during the insult): only reduces cell death when present during the insult

Molecule: O=C(O)CN(CCOCCOCCN(CC(=O)O)CC(=O)O)CC(=O)O [EGTA]
glucose-induced insulin secretion [2]: inhibited

Molecule: COc1ccc(S(=O)(=O)N(CCO)c2ccccc2CN(C)C/C=C/c2ccc(Cl)cc2)cc1 [KN93, reference compound]
CaMKII self-association in vitro [4]: inhibited
autonomous CaMKII activity [5]: only tatCN21 inhibits autonomy
glutamate induced neuronal cell death ([1]; added 1 h after the insult): not when added after the insult; also recorded: only when applied during but not after glutamate insult
glutamate induced neuronal cell death ([1]; present during the insult): protective only when present during the insult; also recorded: reduce by half
glucose-induced insulin secretion [2]: inhibited
CaMKII binding to immobilized GST-NR2B-c / NR2B [3]: inhibited binding
CaMKII T305 auto-phosphorylation ([6]; CN21 5 μM): blocked T305
CaMKII T286 auto-phosphorylation ([6]; CN peptides 1-5 μM): essentially completely blocked
calcium and calmodulin stimulated CaMKII activity ([7]; substrate syntide2): inhibit calcium and calmodulin stimulated CaMKII activity

Molecule: CN17a: C-terminal truncation of CN21a by 4 amino acids (KRPPKLGQIGRSKRVVI)
inhibitory potency on CaMKII activity ([7]; CN truncation peptides, substrate peptides AC2 or syntide 2): still clearly affected CaMKII activity

Molecule: CN19a2: CN19 double mutant P3A, R14A, SEQ ID NO: 25 (KRAPKLGQIGRSKAVVIED; Derived from CamKIIN with amino acid substitutions)
potency of CaMKII inhibition of CN19 combination mutants [7]: largest increase in CaMKII inhibition potency; also recorded: most potent double mutant of CN19
potency of CaMKII inhibition of CN19 combination mutants ([7]; listed as a2): higher potency than the a3 mutant; also recorded: significant inhibition even at 10 nM

Molecule: CN19a3: CN19 triple mutant P3A, K13A, R14A (KRAPKLGQIGRSAAVVIED)
potency of CaMKII inhibition of CN19 combination mutants [7]: significantly increased over CN19 wild type; also recorded: significantly increased potency compared to single mutant with the highest potency, R14A
potency of CaMKII inhibition of CN19 combination mutants ([7]; listed as a3): significantly increased potency of CaMKII inhibition over CN19 wild type; also recorded: slightly better inhibition than the aX mutant

Molecule: V16D: CN19 position 16 substituted with D (rational mutagenesis) (KRAPKLGQIGRVKAVDIED)
Effects of individual CN19 mutations on CaMKII inhibition: column + ([7]; value = substituting residue listed under +): D*

Molecule: tat: cell penetrating sequence YGRKKRRQRRR, SEQ ID NO:15 [reference compound]
binding of biotinylated CaM to immobilized peptide [10]: did not bind
effect on CaMKI activity [8]: statistically significant but much milder effects

More lines, main results first:

CaMKII binding to immobilized GST-NR2B-c / NR2B [3]: did not
Molecule: CC1CNCCN1S(=O)(=O)c1cccc2cnccc12 (stereo not shown) [H7, reference compound]

effect on CaMKI activity [8]: no significant effect
Molecule: CN27: CaM-KIINtide, previously identified inhibitory region of CaM-KIIN, SEQ ID NO:17 (KRPPKLGQIGRSKRVVIEDDRIDDVLK; Derived from CaMKIIN) [reference compound]
inhibition of CaMKII isoforms α and β [7]: inhibit both major brain CaMKII isoforms, α and β

IC50 ([7]; phosphorylation of syntide 2): ~1 nM
Molecule: KRAPKLGQIGRQKAVVIED [CN19a2v V12Q]
effect of further mutation on potency of CaMKII inhibition [7]: significantly increase potency; also recorded: dramatically increase CaMKII inhibition

IC50 ([7]; phosphorylation of syntide 2): ~1 nM
Molecule: KRAPKLGQIGRVKAVDIED [CN19a2v V16D]
effect of further mutation on potency of CaMKII inhibition [7]: significantly increase potency; also recorded: dramatically increase CaMKII inhibition

IC50 [8]: ~18000 nM
IC50 ([7]; phosphorylation of syntide 2): ~20 nM and 20 nM
Molecule: KRAPKLGQIGRVKAVVIED [CN19a2v]
increase of potency of CaMKII inhibition compared to CN19 [7]: about 5 fold
potency of CaMKII inhibition of CN19 combination mutants [7]: without loss of inhibition potency; also recorded: significantly stronger compared to CN19a3 with additional S12V mutation; also recorded: did not reduce potency

IC50 of CaMKII inhibition ([7]; phosphorylation of syntide 2): single digit
Molecule: KRPPKLGQIGRSKAVVIED [R14A]
increase of potency of CaMKII inhibition compared to CN19 [7]: over 10 fold
effect of single CN19 mutation on potency of CaMKII inhibition ([7]; compared to CN19 wild type): significantly increased potency; also recorded: very potent

IC50 [8]: ~36000 nM
effect on CaMKI activity [8]: no significant effect
phosphorylated by PKC [9]: phosphorylated by PKC
phosphorylation rate by PKC compared to MARCKS peptide substrate [9]: > 50%
Molecule: KRPPKLGQIGRSKRVVIED [CN19]

IC50 ([7]; phosphorylation of syntide 2): ~100 nM
Molecule: KRPPKLGQIGRSKRVVIEDD [CN20]

Kd [10]: ~5 nM
competition with CBD for binding of TA-labeled CaM [10]: compete
binding of biotinylated CaM to immobilized peptide [10]: Direct binding
Molecule: RQIKIWFQNRRMKWK [ant]
interference with Ca2+-dependent CaM binding to brain proteins ([10]; blot overlay assay, 5 μM peptide): also interfered with such CaM binding, but somewhat less efficiently than antCN27; also recorded: affect Ca^2+-dependent CaM binding
